The record followed here is patent US20140378408A1, “NUCLEOSIDE 5'-PHOSPHOROTHIOATE ANALOGUES AND USES THEREOF” (BAR-ILAN UNIVERSITY, an Israeli University, priority 2012, published 2014).

Series [1] has as its target T1, human NTPDase3 (Homo sapiens, UniProt O75355).
T1 sequence (O75355 1-529): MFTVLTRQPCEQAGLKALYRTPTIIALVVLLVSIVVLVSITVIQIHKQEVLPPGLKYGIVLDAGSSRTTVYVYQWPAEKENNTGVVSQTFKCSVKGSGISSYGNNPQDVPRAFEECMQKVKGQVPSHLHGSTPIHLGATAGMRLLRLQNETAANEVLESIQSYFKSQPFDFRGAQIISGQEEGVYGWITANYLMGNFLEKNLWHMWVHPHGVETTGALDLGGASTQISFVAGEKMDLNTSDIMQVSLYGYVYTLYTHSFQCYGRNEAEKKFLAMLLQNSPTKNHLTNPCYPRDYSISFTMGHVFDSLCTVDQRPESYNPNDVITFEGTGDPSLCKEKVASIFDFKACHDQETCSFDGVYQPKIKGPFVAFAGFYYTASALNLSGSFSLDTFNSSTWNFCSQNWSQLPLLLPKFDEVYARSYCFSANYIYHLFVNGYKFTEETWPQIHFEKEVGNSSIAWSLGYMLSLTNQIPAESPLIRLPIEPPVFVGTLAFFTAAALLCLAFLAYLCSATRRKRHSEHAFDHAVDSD
In words: Inhibition of NTPDase3 activity. The conditions noted are these: for effect on human NTPDase3 activity: Table 5, ATP and analogue 100 μM, 100% activity = ATP alone; for inhibition of the hydrolysis of ATP by NTPDase3: analogue and ATP 100 μM.

The target of series [2] is T2, human NTPDase1 (Homo sapiens, UniProt P49961).
T2 sequence (P49961 1-510): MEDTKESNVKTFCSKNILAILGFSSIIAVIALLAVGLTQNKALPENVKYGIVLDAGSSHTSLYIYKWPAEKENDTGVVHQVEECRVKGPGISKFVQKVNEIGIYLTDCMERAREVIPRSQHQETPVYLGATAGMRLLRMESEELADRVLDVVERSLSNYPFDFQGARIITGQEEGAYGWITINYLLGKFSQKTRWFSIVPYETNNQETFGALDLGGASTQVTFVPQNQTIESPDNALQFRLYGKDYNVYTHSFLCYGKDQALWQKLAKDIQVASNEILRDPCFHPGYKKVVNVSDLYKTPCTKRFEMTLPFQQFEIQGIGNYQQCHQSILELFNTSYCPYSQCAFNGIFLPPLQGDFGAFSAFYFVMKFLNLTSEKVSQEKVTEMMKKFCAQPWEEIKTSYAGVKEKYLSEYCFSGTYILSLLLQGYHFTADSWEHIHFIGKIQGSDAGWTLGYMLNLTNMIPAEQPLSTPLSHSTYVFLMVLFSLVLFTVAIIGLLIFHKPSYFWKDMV
The series is described as follows: Inhibition of NTPDase1 activity. To be noted: for effect on human NTPDase1 activity: Table 5, ATP and analogue 100 μM, 100% activity = ATP alone, read as inhibition; for inhibition of the hydrolysis of ATP by NTPDase1: analogue and ATP 100 μM.

Series [3] addresses T3, human NTPDase2 (Homo sapiens, UniProt Q9Y5L3).
T3 construct: made in house; host or cells: COS-7 cells (transfected; protein extract)
T3 sequence (Q9Y5L3 1-495): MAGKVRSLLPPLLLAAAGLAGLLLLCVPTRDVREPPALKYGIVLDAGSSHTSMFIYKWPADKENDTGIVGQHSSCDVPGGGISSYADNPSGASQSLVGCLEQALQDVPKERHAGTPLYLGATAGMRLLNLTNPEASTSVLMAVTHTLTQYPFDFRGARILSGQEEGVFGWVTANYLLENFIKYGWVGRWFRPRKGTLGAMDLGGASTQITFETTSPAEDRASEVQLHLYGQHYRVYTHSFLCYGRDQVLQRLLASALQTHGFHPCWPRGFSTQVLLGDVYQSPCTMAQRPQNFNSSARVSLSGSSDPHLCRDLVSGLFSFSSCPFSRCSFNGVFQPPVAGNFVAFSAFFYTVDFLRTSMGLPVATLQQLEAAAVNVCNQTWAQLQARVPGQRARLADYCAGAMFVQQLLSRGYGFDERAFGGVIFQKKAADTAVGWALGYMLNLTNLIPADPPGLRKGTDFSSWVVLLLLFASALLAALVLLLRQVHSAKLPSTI
The series is described as follows: Hydrolysis by human NTPDase2. The class given is in vitro ADME. To be noted: 100 μM, 1 h, activity with 100 μM ATP = 100%.

Series [4] concerns the target T4, human NTPDase8 (Homo sapiens, UniProt Q5MY95).
T4 construct: made in house; host or cells: COS-7 cells (transfected; protein extract)
T4 sequence (Q5MY95 1-495): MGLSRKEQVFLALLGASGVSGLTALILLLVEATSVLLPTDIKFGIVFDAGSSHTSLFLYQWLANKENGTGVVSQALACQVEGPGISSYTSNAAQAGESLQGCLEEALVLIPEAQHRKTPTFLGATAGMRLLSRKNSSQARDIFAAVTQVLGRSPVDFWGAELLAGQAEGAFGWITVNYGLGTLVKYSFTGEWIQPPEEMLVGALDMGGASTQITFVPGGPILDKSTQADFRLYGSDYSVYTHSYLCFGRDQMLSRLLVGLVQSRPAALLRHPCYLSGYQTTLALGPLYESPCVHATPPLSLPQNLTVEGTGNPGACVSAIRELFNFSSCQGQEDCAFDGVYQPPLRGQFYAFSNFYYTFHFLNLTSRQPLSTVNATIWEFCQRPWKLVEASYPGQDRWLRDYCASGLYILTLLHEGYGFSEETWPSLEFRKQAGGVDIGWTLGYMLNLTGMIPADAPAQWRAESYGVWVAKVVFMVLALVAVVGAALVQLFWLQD
In words: Inhibition of NTPDase8 activity. The class given is biochemical. To be noted: for effect on human NTPDase8 activity: Table 5, ATP and analogue 100 μM, 100% activity = ATP alone; for inhibition of the hydrolysis of ATP by NTPDase8: analogue and ATP 100 μM.

The target in series [5] is T2, human NTPDase1. In words: Hydrolysis by human NTPDase1. The series is classed as in vitro ADME. On the set-up: made in house; host or cells: COS-7 cells (transfected; protein extract). To be noted: 100 μM, 1 h, activity with 100 μM ATP = 100%.
Series [6] concerns the target T5, human P2Y11-R (Homo sapiens, UniProt Q96G91).
T5 construct: expressed in transfected cells; host or cells: 1321N1 astrocytoma cells
T5 sequence (Q96G91 1-374): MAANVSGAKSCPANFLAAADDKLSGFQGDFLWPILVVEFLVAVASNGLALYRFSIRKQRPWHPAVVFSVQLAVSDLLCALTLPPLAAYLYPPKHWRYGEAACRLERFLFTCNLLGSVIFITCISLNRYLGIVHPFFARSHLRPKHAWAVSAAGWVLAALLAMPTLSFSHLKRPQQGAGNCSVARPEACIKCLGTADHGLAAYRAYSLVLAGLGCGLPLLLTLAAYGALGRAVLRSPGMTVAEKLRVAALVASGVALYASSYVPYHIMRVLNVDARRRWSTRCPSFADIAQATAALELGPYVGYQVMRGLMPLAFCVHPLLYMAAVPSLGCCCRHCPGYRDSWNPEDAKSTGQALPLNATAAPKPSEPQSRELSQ
The series is described as follows: [Ca^2+]i response of 1321N1 astrocytoma cells expressing P2Y11-R GFP. The series is classed as cell-based.

Series [7] has as its target T3, human NTPDase2. The series is described as follows: Inhibition of NTPDase2 activity. The class given is biochemical. To be noted: for effect on human NTPDase2 activity: Table 5, ATP and analogue 100 μM, 100% activity = ATP alone; for inhibition of the hydrolysis of ATP by NTPDase2: analogue and ATP 100 μM.
Series [8] has as its target T4, human NTPDase8. The series is described as follows: Hydrolysis by human NTPDase8. The series is classed as in vitro ADME. The conditions noted are these: 100 μM, 1 h, activity with 100 μM ATP = 100%.

The structures appear in SMILES notation.

Turning to `Nc1ncnc2c1ncn2[C@@H]1O[C@H](COP(O)(=S)OP(=O)(O)CP(=O)(O)O)[C@@H](O)[C@H]1O` (single isomer, unassigned; isomer a) [APPCP-α-S (isomer A), adenosine 5′-[Pα-thio]-β,γ-methylenetriphosphate], in series [1] (listed as APPCP-α-S A), the “effect on human NTPDase3 activity” value came to 40.2 ± 2.0%. The “inhibition of the hydrolysis of ATP by NTPDase3” value in series [1] is “did not interfere”. Besides, the “effect on human NTPDase1 activity” value in series [2] (listed as APPCP-α-S A) is listed as 58.4 ± 2.1%. In addition, in series [2], the “inhibition of the hydrolysis of ATP by NTPDase1” value was “did not interfere”. Besides, the “Hydrolysis by NTPDase2” value in series [3] (listed as APPCP-α-S A) is 4.7%. Besides, in series [4] (listed as APPCP-α-S A), the “effect on human NTPDase8 activity” value is given as 7.0 ± 0.3%. Besides, the “inhibition of the hydrolysis of ATP by NTPDase8” value in series [4] is given as “did not interfere”. Further, the “Hydrolysis by NTPDase1” value in series [5] (listed as APPCP-α-S A) was determined as 4.4%. The “agonism at the P2Y11-receptor” value in series [6] is recorded as “not an agonist”. In addition, the “effect on human NTPDase2 activity” value in series [7] (listed as APPCP-α-S A) came to 16.3 ± 0.6%. Further, in series [7], the “inhibition of the hydrolysis of ATP by NTPDase2” value was “did not interfere”. The “Hydrolysis by NTPDase8” value in series [8] (listed as APPCP-α-S A) worked out at 4.4%.
As to `Nc1ncnc2c1ncn2[C@@H]1O[C@H](COP(O)(=S)OP(=O)(O)C(Cl)(Cl)P(=O)(O)O)[C@@H](O)[C@H]1O` (single isomer, unassigned; isomer b) [APPCCl2P-α-S (isomer B), adenosine 5′-[Pα-thio]-β,γ-(dichloromethylene)triphosphate], the “effect on human NTPDase3 activity” value in series [1] (listed as APPCCl2P-α-S B) is 24.0 ± 1.2%. The “inhibition of the hydrolysis of ATP by NTPDase3” value in series [1] is listed as “did not interfere”. In addition, the “effect on human NTPDase1 activity” value in series [2] (listed as APPCCl2P-α-S B) came to 21.6 ± 1.0%. For the same molecule, the “inhibition of the hydrolysis of ATP by NTPDase1” value in series [2] was “did not interfere”. Besides, the “Hydrolysis by NTPDase2” value in series [3] (listed as APPCCl2P-α-S B) amounted to 5.5%. Besides, in series [4] (listed as APPCCl2P-α-S B), the “effect on human NTPDase8 activity” value amounted to 1.5 ± 0.06%. Moreover, the “inhibition of the hydrolysis of ATP by NTPDase8” value in series [4] is recorded as “did not interfere”. Moreover, the “Hydrolysis by NTPDase1” value in series [5] (listed as APPCCl2P-α-S B) is 5.4%. Besides, in series [6], the “times more potent than ATP at the P2Y11 receptor” value was determined as 2 fold. Also, in series [7] (listed as APPCCl2P-α-S B), the “effect on human NTPDase2 activity” value was determined as 12.7 ± 0.5%. The “inhibition of the hydrolysis of ATP by NTPDase2” value in series [7] is “did not interfere”. Also, the “Hydrolysis by NTPDase8” value in series [8] (listed as APPCCl2P-α-S B) came to 5.3%.
